Article PMC7301643 (Biochemistry, 2020)

What was measured:
[1] = target: CP:F-actin barbed end (Mus musculus, UniProt P47753+P47757); test: Pyrene-actin polymerization; type: biochemical, Oryctolagus cuniculus (actin); conditions: at concentrations higher than 1 μM
[2] = target: T1, capping protein (CP, CPα1β2) (Mus musculus, UniProt P47753+P47757); test: Isothermal calorimetry; type: binding; conditions: for ΔG°obs, ITC: ΔG° = −RT ln Ka
[3] = target: CP bound to F-actin (Mus musculus, UniProt Q5RKN9+Q923G3); test: Kd for CPI binding to CP bound to F-actin, calculated from thermodynamic cycle; design: species or system Oryctolagus cuniculus (actin)
[4] = target: T1, capping protein (CP, CPα1β2); test: Fluorescence anisotropy titration of CP into TAMRA-labeled CPI-motif peptide; type: binding
[5] = independent experiment 1 (first line), 25 °C, pH 7.2
[6] = independent experiment 2 (second line)

Ac-WASHCAP-NH2 [WASHCAP] was tested, and the “interference of peptide with actin polymerization” value [1] was “interfered with polymerization”, the “N (stoichiometry), ITC” value [2, 5] was 0.985 ± 0.004 and the “TΔS°obs, ITC” value [2, 5] was -14.1 kcal/mol. For the same substance, the “ΔH°obs, ITC” value [2, 5] was -24.6 ± 0.1 kcal/mol, the “ΔG°obs, ITC” value [2, 5] was -10.56 ± 0.04 kcal/mol and the “N (stoichiometry), ITC” value [2, 6] was 0.971 ± 0.009. The “TΔS°obs, ITC” value [2, 6] was -18.3 kcal/mol, the “ΔH°obs, ITC” value [2, 6] was -28.9 ± 0.4 kcal/mol and the “ΔG°obs, ITC” value [2, 6] was -10.60 ± 0.10 kcal/mol. For the same substance, the Kd [3] was 110 ± 10 nM and the Kd [4] was 8.5 ± 0.8 nM.
